What was measured:
Format in all cases: in vivo, human
[1] = test system: pigmentary retinal degeneration; assay: Example 45: pigmentary retinal degeneration; details: person; 60 mg/l included in cyclodextrin, 1 drop (50 μl) twice a day for 3 months
[2] = test system: primary open angle glaucoma; assay: Example 56: primary open angle glaucoma; details: person; 10 mg/l in 2-hydroxypropyl-β-cyclodextrin and γ-cyclodextrin, 1 drop (50 μl) twice a day for a half year
Text: It can be confirmed that administration of raloxifen with eye drops is effective for the treatment of primary open angle glaucoma.

corneal erosion (KSD) = assay: Example 36: corneal erosion; details: person; cyclodextrin-included eye drops of Example 32(1), 1 drop (50 μl) twice a day for 3 days
myopia = assay: Example 37: myopia; details: 21 days; before 0.9
open-angle glaucoma [3] = assay: Example 41: open-angle glaucoma; details: person; 100 mg/l, 1 drop (50 μl) once a day for 14 days
Text: It can be confirmed that administration of trans-resveratrol to eye is effective for treatment of high tension glaucoma.

open-angle glaucoma [4] = assay: Example 39: open-angle glaucoma
Text: It can be confirmed that it is effective for treatment of high tension glaucoma to lower intraocular pressure.

normal tension glaucoma = assay: Example 42: normal tension glaucoma; details: person; 100 mg/l, 1 drop (50 μl) once a day for 33 days
Text: It can be confirmed that administration of trans-resveratrol to eyes is effective for treatment of normal tension glaucoma.

[5] = test system: dry eye and ischemic optic neuropathy; assay: Example 61: dry eye and ischemic optic neuropathy
Text: It can be confirmed that administration of trans-resveratrol is effective for the treatment of dry eye and ischemic optic neuropathy.

[6] = test system: Posner-Schlossmans' Syndrome (glaucoma); assay: Example 40: Posner-Schlossmans' Syndrome; details: thereafter 100 mg/l eye drops, 1 drop (50 μl) once a day for 3 months
Description: Thereafter, 1 drop (50 μl) of eye drops containing trans-resveratrol (100 mg/l) included in cyclodextrin prepared in Example 32(1) was administered once a day for 3 months, then no attack occurred for 3 months or more.

cataract [7] = assay: Example 38: cataract; details: 49 days
cataract [8] = assay: Example 62: cataract; details: person, right eye; 100 mg/l, 1 drop (50 μl) twice a day for 67 days
[9] = test system: central retinal vein occlusion; assay: Example 57: central retinal vein occlusion; details: person; 100 mg/l, 1 drop (50 μl) twice a day for 112 days
Text: It can be confirmed that administration of trans-resveratrol with eye drops is effective for the treatment of central retinal vein occlusion.

glaucoma = assay: Example 58: glaucoma; details: person; 100 mg/l, 1 drop (50 μl) twice a day for 3 months
Text: It can be confirmed that administration of trans-resveratrol with eye drops is effective for the treatment of glaucoma.

iridocyclitis = assay: Example 60: iridocyclitis; details: person, right eye; 100 mg/l, 1 drop (50 μl) twice a day for 10 days
Text: It can be confirmed that administration of trans-resveratrol is effective for the treatment of iridocyclitis.

Structure (SMILES) | visual field [1] | visual fields by OCTOPUS 1-2-3 static perimeter [2] | corneal erosion symptom (corneal erosion (KSD)) | visual acuity Vs (myopia) | visual field, left eye (open-angle glaucoma [3]) | intraocular pressure ToS (open-angle glaucoma [4]; 98 days, before 22) | intraocular pressure ToD (open-angle glaucoma [4]; person, 100 mg/l, 1 drop (50 μl) twice a day for 98 days, before 21) | visual fields (normal tension glaucoma) | ischemic optic neuropathy ([5]; 46 days) | lacrimation and dry eye ([5]; person, 100 mg/l, 1 drop (50 μl) twice a day for 46 days) | period without attack [6] | cataract opacity, slit lamp microscope (cataract [7]) | corrected visual acuity Vs (cataract [7]; before 1.2) | opacity of cataract (cataract [8]) | chorioretinal hemorrhage, left eye [9] | visual fields by OCTOPUS 1-2-3 static perimeter (glaucoma) | iridocyclitis outcome (iridocyclitis)
O=C(c1ccc(OCCN2CCCCC2)cc1)c1c(-c2ccc(O)cc2)sc2cc(O)ccc12 [raloxifene] | visual field was improved | the visual fields were improved | – | – | – | – | – | – | – | – | – | – | – | – | – | – | –
Oc1ccc(/C=C/c2cc(O)cc(O)c2)cc1 [trans-resveratrol] | – | – | the symptom was lightened | 1.2 | visual field was improved | 13 mmHg | 14 mmHG | visual fields were improved | ischemic optic neuropath was improved | lacrimation was increased, dry eye was cured | ≥ 3 months | cataract opacity was lightened | 1.5 | opacity of cataract was reduced | chorioretinal hemorrhage was disappeared | the visual fields were improved | iridocyclitis was cured

From US20110212199A1, “AGENT FOR TREATING EYE DISEASES” (priority 2003, published 2011)
